For 23 compounds, EC50 results are on record in US8354403B2, “Pyrrolidine derived beta 3 adrenergic receptor agonists” (Merck Sharp & Dohme Corp., priority 2009, dated 2013).

In the first assay the target is T1, human β3 adrenergic receptor (Homo sapiens, UniProt P13945).
T1 construct: expressed in transfected cells; host or cells: Chinese hamster ovary (CHO) cells, stably transfected
T1 sequence (P13945 whole entry): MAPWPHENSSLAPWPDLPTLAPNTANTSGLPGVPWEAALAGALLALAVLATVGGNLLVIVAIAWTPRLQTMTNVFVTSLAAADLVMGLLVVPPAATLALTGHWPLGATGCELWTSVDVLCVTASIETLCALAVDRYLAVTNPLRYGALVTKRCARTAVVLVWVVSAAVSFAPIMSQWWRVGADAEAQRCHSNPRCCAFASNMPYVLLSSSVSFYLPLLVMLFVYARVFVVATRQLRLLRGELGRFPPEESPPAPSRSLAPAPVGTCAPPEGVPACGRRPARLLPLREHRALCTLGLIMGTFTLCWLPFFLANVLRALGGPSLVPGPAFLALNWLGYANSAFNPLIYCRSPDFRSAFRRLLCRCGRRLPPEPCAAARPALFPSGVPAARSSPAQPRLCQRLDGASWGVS
Nature of the assay: Beta-3 agonist in vitro functional assay: cAMP production (LANCE TR-FRET) in CHO cells stably transfected with the cloned β3 receptor. Format: cell-based. The note with it: Table 4; cAMP, CHO cells; read-out: Human β3 agonist functional activity. The gist of the method: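 CHO cells stably expressing the cloned receptor, in HEPES-buffered HBSS with BSA and 0.6 mM IBMX, 6,000 cells/well, exposed to compound for 30 min at RT. cAMP read by LANCE TR-FRET against a cAMP standard curve. Isoproterenol defines maximal stimulation.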
As for `O=C(c1ccc(C[C@@H]2CC[C@H]([C@H](O)c3ccccc3)N2)cc1)N1CCC2c3cccnc3OC2C1` (some centres unmarked) [Example 58], the EC50 lay in the range of 10 to 99.9 nM. On to `Cc1nonc1C1CCCN1C(=O)c1ccc(C[C@@H]2CC[C@H]([C@H](O)c3ccccc3)N2)cc1` (some centres unmarked) [Example 14], for which the EC50 was in the range of 100 to 999 nM.

Still in this assay, the particulars now being: Table 5; cAMP, CHO cells; read-out: Human β3 agonist functional activity.
As for `N#Cc1ccc(S(=O)(=O)C2CCN(C(=O)c3ccc(C[C@@H]4CC[C@H]([C@H](O)c5ccccc5)N4)cc3)CC2)cc1` [Example 137], the EC50 is 10 to 99.9 nM. Same read-out and setting: as for `O=C(c1ncco1)C1CCN(C(=O)c2ccc(C[C@@H]3CC[C@H]([C@H](O)c4ccccc4)N3)cc2)CC1` [Example 120], the figure is 10 to 99.9 nM.

The same assay, now with this note: Table 8; Beta-3 agonist in vitro functional assay; read-out: Human β3 agonist functional activity.
As for `O=C(c1ccc(C[C@@H]2CC[C@H]([C@H](O)c3ccccc3)N2)cc1)N1CCC2(CC1)C(=O)NCC2c1cccc(C(F)(F)F)c1` (some centres unmarked) [Example 264], the EC50 is < 1 nM.

In the case of `O=C1CC2(CCN(C(=O)c3ccc(C[C@@H]4CC[C@H]([C@H](O)c5ccccc5)N4)cc3)CC2)Sc2ccccc21` [Example 326], the EC50 is 1 to 9.9 nM.

The assay is the same for the next values; noted with them: Table 9; Beta-3 agonist in vitro functional assay; read-out: Human β3 agonist functional activity.
Take `O=C(c1ccc(C[C@@H]2CC[C@H]([C@H](O)c3ccccc3)N2)cc1)N1CCN(c2ncccc2Cl)CC1` [Example 358]: the EC50 lay within 10 to 99.9 nM. The same measure, in the same setting: as for `Cn1nnnc1CN1CCN(C(=O)c2ccc(C[C@@H]3CC[C@H]([C@H](O)c4ccccc4)N3)cc2)CC1` [Example 399], the figure is 10 to 99.9 nM; as for `O=C(c1ccc(C[C@@H]2CC[C@H]([C@H](O)c3ccccc3)N2)cc1)N1CCN(Cc2cnn(-c3ccccc3)n2)CC1` [Example 408], 1 to 9.9 nM.

As to `CS(=O)(=O)N1CCN(C(=O)c2ccc(C[C@@H]3CC[C@H]([C@H](O)c4ccccc4)N3)cc2)CC1` [Example 345], the EC50 is 100 to 999 nM. As for `O=C(c1ccc(C[C@@H]2CC[C@H]([C@H](O)c3ccccc3)N2)cc1)N1CCN(C(=O)c2ccco2)CC1` [Example 349], the EC50 fell in the range of 100 to 999 nM.

Staying with this assay, now noted: Table 10; Beta-3 agonist in vitro functional assay; read-out: Human β3 agonist functional activity.
As for `CC(C(=O)N1CCCCC1C)N1CCN(C(=O)c2ccc(C[C@@H]3CC[C@H]([C@H](O)c4ccccc4)N3)cc2)CC1` (some centres unmarked) [Example 485], the EC50 is 10 to 99.9 nM. On the same count and under the same terms, as for `CC(C(=O)NCCC1CC1)N1CCN(C(=O)c2ccc(C[C@@H]3CC[C@H]([C@H](O)c4ccccc4)N3)cc2)CC1` (some centres unmarked) [Example 448], the figure is 10 to 99.9 nM; as for `CC(C(=O)N1CCc2oncc2C1)N1CCN(C(=O)c2ccc(C[C@@H]3CC[C@H]([C@H](O)c4ccccc4)N3)cc2)CC1` (some centres unmarked) [Example 503], 10 to 99.9 nM; as for `CC(C(=O)NC(C1CC1)C1CC1)N1CCN(C(=O)c2ccc(C[C@@H]3CC[C@H]([C@H](O)c4ccccc4)N3)cc2)CC1` (some centres unmarked) [Example 451], 10 to 99.9 nM. The same measure, in the same setting: to `CCc1noc(CNC(=O)C(C)N2CCN(C(=O)c3ccc(C[C@@H]4CC[C@H]([C@H](O)c5ccccc5)N4)cc3)CC2)n1` (some centres unmarked) [Example 465] belongs 10 to 99.9 nM. Same read-out and setting: to `CC(C(=O)NCc1cnoc1)N1CCN(C(=O)c2ccc(C[C@@H]3CC[C@H]([C@H](O)c4ccccc4)N3)cc2)CC1` (some centres unmarked) [Example 461] belongs 10 to 99.9 nM. On to `CC(C(=O)N1CCCCC1)N1CCN(C(=O)c2ccc(C[C@@H]3CC[C@H]([C@H](O)c4ccccc4)N3)cc2)CC1` (some centres unmarked) [Example 484], for which the EC50 lay within 10 to 99.9 nM.

Consider `CC(C(=O)NC1CCS(=O)(=O)CC1)N1CCN(C(=O)c2ccc(C[C@@H]3CC[C@H]([C@H](O)c4ccccc4)N3)cc2)CC1` (some centres unmarked) [Example 469], for which the EC50 fell in the range of 10 to 99.9 nM.

The same assay, now with this note: Table 11; cAMP, CHO cells; read-out: Human β3 agonist functional activity.
In the case of `O=C(c1ccc(C[C@@H]2CC[C@H]([C@H](O)c3ccccc3)N2)cc1)N1CC2CC1CN2Cc1ccccn1` (some centres unmarked) [Example 534], the EC50 lay within 100 to 999 nM.

The same assay, now with this note: Table 12; human β3 functional activity given as ranges; read-out: Human β3 agonist functional activity.
As to `O=C(c1ccc(CC2CCC(C(O)c3cccnc3)N2)cc1)N1CCC2(CC1)C(=O)NCC2c1ccc(F)cc1` (single isomer, unassigned) [Example 556], the EC50 lay within 1 to 9.9 nM. Turning to `CCC(c1ccccn1)N1CCN(C(=O)c2ccc(CC3CCC(C(O)c4ccccc4)N3)cc2)CC1` (single isomer, unassigned) [Example 588], the EC50 is 1 to 9.9 nM. Still for that read-out and setting: as for `CC(c1ncco1)N1CCN(C(=O)c2ccc(CC3CCC(C(O)c4ccccc4)N3)cc2)CC1` (single isomer, unassigned) [Example 584], the figure is 10 to 99.9 nM.
